Experimental data: the supplement of paper PMC10627819

Tests used:
S. aureus DSM 20231 [1] = test: fitness (endpoint OD595 vs no drug) (fraction); higher = more growth
In short: (§1)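 Fitness is computed from the optical density at which cultures reach stationary phase, divided by the robust mean of no-drug control wells. Any value above 1 is set to 1. Cultures started at OD595 0.01 in 384-well plates with TSB, LB Lennox or CY at 37 °C, and OD595 was read every 30 min for 14 h against a first-reading background.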

S. aureus Newman [2] = test: as above
In short: as §1

B. subtilis 168 = test: Bliss interaction score (quartile over a dose matrix) (fitness difference); higher = more antagonism (negative = synergy)
In short: (§2)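 Quartiles of the Bliss score were taken over technical, biological and donor/recipient replicates. That score is observed fitness minus the product of the single-drug fitness values, which were inferred from combination data. Fitness itself is OD595 at entry into stationary phase divided by the plate's robust no-drug mean, with a cap at 1.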

S. aureus DSM 20231 [3] = test: as above
In short: as §2

S. aureus Newman [4] = test: as above
In short: as §2

S. pneumoniae D39V [5] = test: as above
In short: as §2

S. pneumoniae D39V [6] = test: fitness (endpoint OD595 vs no drug) (fraction); higher = more growth
In short: as §1
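Wherever Bliss interaction score (quartile over a dose matrix) is given: first quartile when negative (synergy) and third quartile when positive (antagonism).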

COc1c(N2C[C@@H]3CCCN[C@@H]3C2)c(F)cc2c(=O)c(C(=O)O)cn(C3CC3)c12 [Moxifloxacin] + CCCCCCCCCC(=O)N[C@@H]1[C@H]([C@@H]([C@H](O[C@H]1OC2=C3C=C4C=C2OC5=C(C=C(C=C5)[C@H]([C@H]6C(=O)N[C@@H](C7=C(C(=CC(=C7)O)OC8[C@H]([C@H]([C@@H]([C@H](O8)CO)O)O)O)C9=C(C=CC(=C9)[C@H](C(=O)N6)NC(=O)[C@@H]4NC(=O)[C@@H]1C2=CC(=CC(=C2)OC2=C(C=CC(=C2)[C@H](C(=O)N[C@H](CC2=CC(=C(O3)C=C2)Cl)C(=O)N1)N)O)O)O)C(=O)O)O[C@H]1[C@@H]([C@H]([C@@H]([C@H](O1)CO)O)O)NC(=O)C)Cl)CO)O)O [Teicoplanin]
fitness, main component drawn
Conditions	first compound 0.0075 µg/mL	first compound 0.015 µg/mL	first compound 0.03 µg/mL
S. aureus DSM 20231 [1], partner 0.1562 µg/mL	0.912	0.852	0.748
S. aureus DSM 20231 [1], partner 0.3125 µg/mL	≥ 1	0.94	0.752
S. aureus DSM 20231 [1], partner 0.625 µg/mL	≥ 1	0.991	0.745
S. aureus Newman [2], partner 0.1562 µg/mL	0.773	0.597	0.0859
S. aureus Newman [2], partner 0.3125 µg/mL	0.797	0.577	0.0839
S. aureus Newman [2], partner 0.625 µg/mL	0.717	–	0.06

fitness, one replicate, main component drawn
Conditions	partner 0.1562 µg/mL	partner 0.3125 µg/mL	partner 0.62 µg/mL	partner 0.625 µg/mL	partner 1.24 µg/mL	partner 2.48 µg/mL
S. aureus DSM 20231 [1], first compound 0.06 µg/mL	0.665	0.7	–	0.697	–	–
S. aureus DSM 20231 [1], first compound 0.12 µg/mL	0.497	0.468	–	0.513	–	–
S. aureus Newman [2], first compound 0.0075 µg/mL	–	–	0.679	–	0.608	0.337
S. aureus Newman [2], first compound 0.015 µg/mL	–	–	0.608	–	0.488	0.0713
S. aureus Newman [2], first compound 0.03 µg/mL	–	–	0.0881	–	0.0113	0.0176

main component drawn
Conditions	Bliss interaction score
B. subtilis 168	-0.0201
S. aureus DSM 20231 [3]	0.0596
S. aureus Newman [4]	-0.0744
S. pneumoniae D39V [5]	-0.0767

COc1c(N2C[C@@H]3CCCN[C@@H]3C2)c(F)cc2c(=O)c(C(=O)O)cn(C3CC3)c12 [Moxifloxacin] + CN[C@H](CC(C)C)C(=O)N[C@H]1C(=O)N[C@@H](CC(N)=O)C(=O)N[C@H]2C(=O)N[C@H]3C(=O)N[C@H](C(=O)N[C@H](C(=O)O)c4cc(O)cc(O)c4-c4cc3ccc4O)[C@H](O)c3ccc(c(Cl)c3)Oc3cc2cc(c3O[C@@H]2O[C@H](CO)[C@@H](O)[C@H](O)[C@H]2O[C@H]2C[C@](C)(N)[C@H](O)[C@H](C)O2)Oc2ccc(cc2Cl)[C@H]1O [Vancomycin]
Conditions	fitness
S. aureus DSM 20231 [1], first compound 0.0075 µg/mL, partner 0.1875 µg/mL	0.818
S. aureus DSM 20231 [1], first compound 0.0075 µg/mL, partner 0.375 µg/mL	0.854
S. aureus DSM 20231 [1], first compound 0.0075 µg/mL, partner 0.75 µg/mL	0.853
S. aureus DSM 20231 [1], first compound 0.015 µg/mL, partner 0.1875 µg/mL	0.745
S. aureus DSM 20231 [1], first compound 0.015 µg/mL, partner 0.375 µg/mL	0.761
S. aureus DSM 20231 [1], first compound 0.015 µg/mL, partner 0.75 µg/mL	0.84
S. aureus DSM 20231 [1], first compound 0.03 µg/mL, partner 0.1875 µg/mL	0.667
S. aureus DSM 20231 [1], first compound 0.03 µg/mL, partner 0.375 µg/mL	0.689
S. aureus DSM 20231 [1], first compound 0.03 µg/mL, partner 0.75 µg/mL	0.652
S. aureus Newman [2], first compound 0.0075 µg/mL, partner 0.1875 µg/mL	0.768
S. aureus Newman [2], first compound 0.0075 µg/mL, partner 0.375 µg/mL	0.75
S. aureus Newman [2], first compound 0.0075 µg/mL, partner 0.75 µg/mL	0.768
S. aureus Newman [2], first compound 0.015 µg/mL, partner 0.75 µg/mL	0.518
S. aureus Newman [2], first compound 0.03 µg/mL, partner 0.375 µg/mL	0.0717
S. aureus Newman [2], first compound 0.03 µg/mL, partner 0.75 µg/mL	0.0889
S. pneumoniae D39V [6], first compound 0.0037 µg/mL, partner 0.03125 µg/mL	0.881
S. pneumoniae D39V [6], first compound 0.005 µg/mL, partner 0.125 µg/mL	0.909
S. pneumoniae D39V [6], first compound 0.0075 µg/mL, partner 0.03125 µg/mL	0.908
S. pneumoniae D39V [6], first compound 0.0075 µg/mL, partner 0.0625 µg/mL	0.853
S. pneumoniae D39V [6], first compound 0.0075 µg/mL, partner 0.125 µg/mL	0.753
S. pneumoniae D39V [6], first compound 0.01 µg/mL, partner 0.125 µg/mL	0.92
S. pneumoniae D39V [6], first compound 0.015 µg/mL, partner 0.03125 µg/mL	0.897
S. pneumoniae D39V [6], first compound 0.015 µg/mL, partner 0.0625 µg/mL	0.848
S. pneumoniae D39V [6], first compound 0.015 µg/mL, partner 0.125 µg/mL	0.689
S. pneumoniae D39V [6], first compound 0.02 µg/mL, partner 0.125 µg/mL	0.913

fitness, S. aureus DSM 20231 [1], one replicate
Conditions	partner 0.1875 µg/mL	partner 0.375 µg/mL	partner 0.75 µg/mL
first compound 0.06 µg/mL	0.688	0.694	0.704
first compound 0.12 µg/mL	0.46	0.455	0.46

Conditions	Bliss interaction score
B. subtilis 168	0.031
S. aureus DSM 20231 [3]	-0.0583
S. aureus Newman [4]	-0.0617
S. pneumoniae D39V [5]	0.0942

COc1c(N2C[C@@H]3CCCN[C@@H]3C2)c(F)cc2c(=O)c(C(=O)O)cn(C3CC3)c12 [Moxifloxacin] + Cn1nnc(-c2ccc(-c3ccc(N4C[C@H](CO)OC4=O)cc3F)cn2)n1 [Tedizolid]
fitness
Conditions	partner 0.03125 µg/mL	partner 0.0625 µg/mL	partner 0.125 µg/mL	partner 0.25 µg/mL	partner 0.5 µg/mL
S. aureus DSM 20231 [1], first compound 0.0075 µg/mL	–	0.813	0.765	0.411	–
S. aureus DSM 20231 [1], first compound 0.015 µg/mL	–	0.755	0.704	0.453	–
S. aureus DSM 20231 [1], first compound 0.03 µg/mL	–	0.682	0.7	0.653	–
S. aureus Newman [2], first compound 0.0075 µg/mL	–	0.755	0.737	0.41	–
S. aureus Newman [2], first compound 0.015 µg/mL	–	0.587	0.581	0.291	–
S. aureus Newman [2], first compound 0.03 µg/mL	–	–	0.343	0.178	–
S. pneumoniae D39V [6], first compound 0.0037 µg/mL	0.887	0.877	0.741	–	–
S. pneumoniae D39V [6], first compound 0.005 µg/mL	–	–	0.851	0.8	0.441
S. pneumoniae D39V [6], first compound 0.0075 µg/mL	0.904	0.871	0.761	–	–
S. pneumoniae D39V [6], first compound 0.01 µg/mL	–	–	0.857	0.775	0.466
S. pneumoniae D39V [6], first compound 0.015 µg/mL	0.897	0.822	0.761	–	–
S. pneumoniae D39V [6], first compound 0.02 µg/mL	–	–	0.842	0.778	0.49

fitness, S. aureus DSM 20231 [1], one replicate
Conditions	partner 0.0625 µg/mL	partner 0.125 µg/mL	partner 0.25 µg/mL
first compound 0.06 µg/mL	0.67	0.69	0.727
first compound 0.12 µg/mL	0.511	0.539	0.595

Conditions	Bliss interaction score
B. subtilis 168	-0.0253
S. aureus DSM 20231 [3]	0.103
S. aureus Newman [4]	0.0881
S. pneumoniae D39V [5]	-0.0629
